Data from ChEMBL document CHEMBL1201862, “PubChem BioAssay data set” (2004).
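Growth conditions: 96-well plates. Treatment: test compound, 48 hours, 5 concentrations. Analysis: linear interpolation between bracketing concentrations; unreached endpoints set to highest concentration. Here, GI50 denotes the concentration required for 50% inhibition of growth.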 Active and inactive are the calls of the source. Cut-off read from the data, not from the text of the source: active = GI50 up to about 1.1 µM and inactive = higher.

What was measured:
Assay in all cases: DTP human tumour cell line panel, 48 h
U-251 = system: U-251
OVCAR-3 = system: OVCAR-3
OVCAR-4 = system: OVCAR-4
ACHN = system: ACHN
RXF 393 = system: RXF 393
MCF7 = system: MCF7
Hs-578T = system: Hs-578T
K562 = system: K562
HOP-62 = system: HOP-62
SNB-19 = system: SNB-19
SK-MEL-28 = system: SK-MEL-28
NCI-H226 = system: NCI-H226
MDA-N = system: MDA-N
SK-MEL-5 = system: SK-MEL-5
TK-10 = system: TK-10
M14 = system: M14
LOX IMVI = system: LOX IMVI
Malme-3M = system: Malme-3M
SW-620 = system: SW-620
T47D = system: T47D
UACC-62 = system: UACC-62
UACC-257 = system: UACC-257
NCI/ADR-RES = system: NCI/ADR-RES
HL-60 = system: HL-60
SN12C = system: SN12C
DU-145 = system: DU-145
UO-31 = system: UO-31
HOP-92 = system: HOP-92
MDA-MB-435 = system: MDA-MB-435
IGROV-1 = system: IGROV-1
NCI-H460 = system: NCI-H460
HT-29 = system: HT-29
SF-268 = system: SF-268
A498 = system: A498
COLO 205 = system: COLO 205
CCRF-CEM = system: CCRF-CEM
OVCAR-8 = system: OVCAR-8
SK-OV-3 = system: SK-OV-3
786-0 = system: 786-0
PC-3 = system: PC-3
CAKI-1 = system: CAKI-1
SF-295 = system: SF-295
OVCAR-5 = system: OVCAR-5
NCI-H23 = system: NCI-H23
EKVX = system: EKVX
KM12 = system: KM12
HCC 2998 = system: HCC 2998
BT-549 = system: BT-549
A549 = system: A549
HCT-116 = system: HCT-116
RPMI-8226 = system: RPMI-8226
HCT-15 = system: HCT-15
MOLT-4 = system: MOLT-4
NCI-H522 = system: NCI-H522
SR = system: SR
SK-MEL-2 = system: SK-MEL-2
SNB-75 = system: SNB-75
MDA-MB-231 = system: MDA-MB-231
SF-539 = system: SF-539

Measured: GI50

CC(=O)Nc1ccc2c(c1)/C(=N/c1ccc(C(=O)O)cc1)c1ccccc1-2
inactive: U-251 > 100 µM | OVCAR-3 99.8 µM | OVCAR-4 41 µM | ACHN > 100 µM | RXF 393 > 100 µM | MCF7 2.42 µM | Hs-578T 92.7 µM | K562 63.1 µM | HOP-62 86.1 µM | SNB-19 55.6 µM | SK-MEL-28 > 100 µM | NCI-H226 39.5 µM | MDA-N > 100 µM | SK-MEL-5 25.8 µM | TK-10 > 100 µM | M14 99.1 µM | LOX IMVI 50.9 µM | Malme-3M > 100 µM | SW-620 > 100 µM | T47D 28 µM | UACC-62 91.4 µM | UACC-257 > 100 µM | NCI/ADR-RES 95.1 µM | SN12C > 100 µM | DU-145 > 100 µM | UO-31 38.3 µM | HOP-92 37.9 µM | MDA-MB-435 > 100 µM | IGROV-1 46.3 µM | NCI-H460 44.7 µM | HT-29 59.6 µM | SF-268 > 100 µM | A498 > 100 µM | COLO 205 57.3 µM | CCRF-CEM 26.4 µM | OVCAR-8 76.7 µM | SK-OV-3 > 100 µM | 786-0 > 100 µM | PC-3 83.6 µM | CAKI-1 > 100 µM | SF-295 96.4 µM | OVCAR-5 > 100 µM | NCI-H23 > 100 µM | EKVX 45.9 µM | KM12 51.4 µM | HCC 2998 > 100 µM | BT-549 47.1 µM | A549 > 100 µM | HCT-116 > 100 µM | RPMI-8226 36 µM | MOLT-4 32.1 µM | NCI-H522 70 µM
active: HL-60 < 0.01 µM
43.9 µM: HCT-15

N#Cc1c(-c2ccc(Cl)cc2)c2c(n(C3OC(CO)C(O)C(O)C3O)c1=S)CCCC2 (stereo unspecified)
inactive: U-251 64.9 µM | SR 39.2 µM | OVCAR-3 69.8 µM | OVCAR-4 82.2 µM | ACHN 79.8 µM | SK-MEL-2 > 100 µM | RXF 393 > 10 µM | SNB-75 > 100 µM | MCF7 55.2 µM | Hs-578T > 100 µM | K562 37.8 µM | HOP-62 85.3 µM | SNB-19 39.1 µM | SK-MEL-28 78.7 µM | NCI-H226 > 100 µM | MDA-N 44.2 µM | SK-MEL-5 18.4 µM | TK-10 72.4 µM | M14 > 100 µM | LOX IMVI 47.2 µM | Malme-3M 50.8 µM | SW-620 74 µM | UACC-257 > 100 µM | NCI/ADR-RES > 100 µM | HL-60 24.7 µM | SN12C 68.5 µM | DU-145 > 100 µM | UO-31 74.5 µM | HOP-92 46 µM | MDA-MB-435 54.8 µM | IGROV-1 59.2 µM | MDA-MB-231 53.6 µM | NCI-H460 54.2 µM | HT-29 73.3 µM | SF-268 > 100 µM | A498 49.3 µM | COLO 205 38.3 µM | CCRF-CEM 49.3 µM | OVCAR-8 80.4 µM | 786-0 60.8 µM | PC-3 56.2 µM | CAKI-1 > 100 µM | SF-295 > 100 µM | OVCAR-5 > 100 µM | NCI-H23 > 100 µM | EKVX 56.1 µM | KM12 50 µM | HCC 2998 > 100 µM | BT-549 25.5 µM | A549 > 100 µM | HCT-116 53.1 µM | RPMI-8226 44.3 µM | SF-539 > 100 µM | MOLT-4 26.1 µM | NCI-H522 63.2 µM
> 100 µM: HCT-15

Cc1nc(C)c(N2CCN(S(N)(=O)=O)CC2)c(O)n1
> 100 µM: HCT-15
inactive: U-251 > 100 µM | SR > 100 µM | OVCAR-3 > 100 µM | OVCAR-4 > 100 µM | ACHN > 100 µM | RXF 393 > 100 µM | MCF7 > 100 µM | Hs-578T > 100 µM | K562 > 100 µM | HOP-62 > 100 µM | SNB-19 > 100 µM | SK-MEL-28 > 100 µM | NCI-H226 > 100 µM | SK-MEL-5 > 100 µM | TK-10 > 100 µM | M14 > 100 µM | LOX IMVI > 100 µM | Malme-3M > 100 µM | SW-620 > 100 µM | T47D > 100 µM | UACC-62 > 100 µM | UACC-257 > 100 µM | NCI/ADR-RES > 100 µM | HL-60 > 100 µM | SN12C > 100 µM | DU-145 > 100 µM | UO-31 > 100 µM | HOP-92 > 100 µM | MDA-MB-435 > 100 µM | IGROV-1 > 100 µM | MDA-MB-231 > 100 µM | NCI-H460 > 100 µM | HT-29 > 100 µM | SF-268 > 100 µM | A498 > 100 µM | COLO 205 > 100 µM | CCRF-CEM > 100 µM | OVCAR-8 > 100 µM | SK-OV-3 > 100 µM | 786-0 > 100 µM | PC-3 > 100 µM | CAKI-1 > 100 µM | SF-295 > 100 µM | NCI-H23 > 100 µM | EKVX > 100 µM | KM12 > 100 µM | HCC 2998 > 100 µM | BT-549 > 100 µM | A549 > 100 µM | HCT-116 > 100 µM | RPMI-8226 > 100 µM | SF-539 > 100 µM | MOLT-4 > 100 µM | NCI-H522 > 100 µM
active: SNB-75 0.101 µM
